Measurements reported in the NIST ThermoML archive (doi:10.1021/je900596d).

Settings: 353.12 K, Fluid (supercritical or subcritical phases), Vibrating tube method

FC(F)=C(F)C(F)(F)F [hexafluoropropene]
Settings	mass density [kg/m3]
251.4 kPa	13.222
262.8 kPa	13.844
272.6 kPa	14.383
303.9 kPa	16.11
313 kPa	16.554
322.1 kPa	17.107
330.9 kPa	17.558
340 kPa	18.069
349.1 kPa	18.584
358.7 kPa	19.177
369.1 kPa	19.754
379.1 kPa	20.272
389.1 kPa	20.831
398.8 kPa	21.42
402.9 kPa	21.597
407.6 kPa	21.905
413.1 kPa	22.161
418.2 kPa	22.524
427.2 kPa	23.019
456.1 kPa	24.636
465.8 kPa	25.243
475.9 kPa	25.82
485.6 kPa	26.38
494.8 kPa	26.85
499.7 kPa	27.22
504.9 kPa	27.48
509.8 kPa	27.78
514.2 kPa	28
524.1 kPa	28.5
533.5 kPa	29.18
538.4 kPa	29.45
545.1 kPa	30
567 kPa	31.29
590.2 kPa	32.66
613.6 kPa	34.14
636.8 kPa	35.5
660.1 kPa	36.92
683.4 kPa	38.37
706.6 kPa	39.74
729.7 kPa	41.24
752.5 kPa	42.62
775.3 kPa	44.06
796.9 kPa	45.46
816.7 kPa	46.73
836 kPa	47.99
854.6 kPa	49.09
872.3 kPa	50.27
890.1 kPa	51.44
907.5 kPa	52.57
924.8 kPa	53.65
942.1 kPa	54.86
975.7 kPa	57.1
992.2 kPa	58.29
1023.7 kPa	60.42
1038.9 kPa	61.48
1054.5 kPa	62.56
1070 kPa	63.66
1085.8 kPa	64.72
1101.6 kPa	65.79
1116.8 kPa	66.89
1131.5 kPa	67.98
1146.8 kPa	69
1161.5 kPa	70.08
1205.5 kPa	73.34
1219.6 kPa	74.41
1247.6 kPa	76.44
1261.7 kPa	77.55
1275.7 kPa	78.61
1303.4 kPa	80.62
1330.3 kPa	82.8
1356.9 kPa	84.86
1383.3 kPa	86.96
1408.9 kPa	88.93
1434.2 kPa	91.01
1459.3 kPa	93.02
1483.9 kPa	95.18
1508 kPa	97.12
1531.3 kPa	99.1
1554.6 kPa	101.06
1577.1 kPa	102.97
1599.7 kPa	105.06
1621.5 kPa	106.97
1643.3 kPa	108.91
1664 kPa	110.78
1684.8 kPa	112.72
1705.1 kPa	114.65
1725.3 kPa	116.53
1745.4 kPa	118.38
1764.4 kPa	120.27
1783 kPa	122.06
1801.8 kPa	123.93
1819.8 kPa	125.68
1837.5 kPa	127.52
1854.8 kPa	129.26
1871.7 kPa	131.01
1887.6 kPa	132.69
1901.9 kPa	134.3
1921.8 kPa	136.34
1936 kPa	137.88
1955.9 kPa	140.04
1970.5 kPa	141.59
1990.1 kPa	143.83
2027.5 kPa	148.08
2047 kPa	150.4
2061 kPa	152.1
2079.9 kPa	154.31
2102.5 kPa	157.14
2119.5 kPa	159.22
2136.1 kPa	161.36
2152.9 kPa	163.58
2175.2 kPa	166.51
2194.7 kPa	169.1
2217.5 kPa	172.27
2237.1 kPa	175.05
2258.4 kPa	178.08
2276.1 kPa	180.72
2293.5 kPa	183.23
2310.9 kPa	185.85
2329.3 kPa	188.76
2343.8 kPa	191.1
2361 kPa	193.93
2378.6 kPa	196.85
2393.5 kPa	199.32
2410.2 kPa	202.31
2428.4 kPa	205.51
2442.4 kPa	208.12
2463 kPa	211.98
2479.5 kPa	215.15
2502.3 kPa	219.78
2520.3 kPa	223.6
2540.4 kPa	228.04
2560 kPa	232.39
2575.6 kPa	236.13
